The source of these data is patent US20230391772A1, “METHODS AND COMPOSITIONS FOR TARGETED PROTEIN DEGRADATION” (Ranok Therapeutics (Hangzhou) Co. Ltd., priority 2020, published 2023).

Assay [1] deals with T1, KRAS(G12C) (Homo sapiens, UniProt P01116, G12C). The assay is described as follows: KRAS(G12C)/SOS1 homogeneous time-resolved fluorescence (HTRF) assay. Also on record: purchased Cisbio 63ADK000CB16PEG. The settings on record: absence of GTP, 4° C. for 3 hr, read-out: KRAS (G12C) binding. The procedure, abridged: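 Three-hour incubation at 4 °C of 3-fold compound dilutions (lowest 1.02 nM) with KRAS(G12C), SOS1 and detection reagents, GTP absent. Disruption of the KRAS(G12C)/SOS1 complex detected by time-resolved fluorescence.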

Assay [2] addresses T1, KRAS(G12C). Nature of the assay: KRAS(G12C) Western blot protein degradation assay in LU65A cells. In kind it is cell-based. The arrangement: LU65A human lung cancer cell line, which expresses KRAS(G12C); host or cells: LU65A. To be noted: 6 hr. The method, then:
The following cancer cell lines were employed: BT-474 human breast carcinoma (ATCC, #HTB-20); MIA PaCa-2 human pancreatic carcinoma [2 copies KRAS(G12C)](ATCC, #CRL-1420); NCI-H23 human non-small cell lung cancer [1 copy KRAS(G12C)](ATCC, #CRL-5800); NCI-H358 human non-small cell lung cancer [1 copy KRAS(G12C)](ATCC, #CRL-5807); LU65A human lung carcinoma (Pharmaron, Beijing, China). Cell lines were cultured essentially according to ATCC and Pharmaron recommendations.
KRAS(G12C) Western Blot Protein Degradation Assay
The MIA PaCa-2 human pancreatic carcinoma cell line and LU65A human lung cancer cell line, which expresses KRAS(G12C), were seeded in 6- or 12-well tissue culture plates, and after 1 hr, test compounds were added at various concentrations and incubated at 37° C./5% CO2 for 48 hr (MIA Paca-2) and 6 hr (LU65A) respectively. Cells were then washed with cold PBS, aspirated and cold RIPA buffer containing a protease/phosphatase inhibitor cocktail was added to lyse cells. After centrifugation, the total protein concentrations of cell lysates were determined using the BCA protein assay. Samples were normalized for equivalent protein concentrations, 5×SDS-PAGE loading buffer added and denatured at 100° C. for 10 min. 20 μl of each sample/well was loaded on a SDS-PAGE gel and electrophoresed for 20 min at 80 V, then 120 V for 1.5 hr. Gels were then electroblotted to nitrocellulose membranes using a wet-transfer method at 250 mA for 2.5 hr. Membranes were incubated with blocking buffer for 1 hr and washed 3 times with TBST for 5 min. Membranes were then incubated with anti-KRAS (Sigma-Aldrich, #SAB1404011) and anti-β-Actin monoclonal antibodies (Cell Signaling Technology, #3700) diluted in blocking buffer at 4° C. overnight per the manufacturer's recommendations. After washing 3 times, blots were incubated with appropriately labeled secondary antibodies for 1 hr at room temperature and washed again. Fluorescence imaging and quantitation was performed using a LI-COR Odyssey. Results was analyzed using GraphPad Prism 7 software. Compound degradation of was determined by the following equation and DC50 values (the concentration at which 50% of the maximal degradation of KRAS occurs) calculated using GraphPad Prism 7 software:
% Inhibition=100−(D−B)/(S−B)*100%. • S: Fluorescence intensity of cells with antibody • D: Fluorescence intensity of compound-treated cells with antibody • B: Fluorescence intensity of cells without antibody

Assay [3] relates to MIA PaCa-2 human pancreatic carcinoma. Nature of the assay: MIA PaCa-2 CCK-8 proliferation assay. The assay is classed as cell-based. The settings on record: MIA PaCa-2 cells. The procedure, abridged: (§1)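 CCK-8 absorbance readout; % inhibition = 100 − (compound − blank)/(DMSO − blank) × 100, blank = medium + DMSO, no cells. Dose range 20 μM down to 1.02 nM, 3-fold steps. KRAS(G12C) copy number: MIA PaCa-2 2; NCI-H358 1; NCI-H23 1.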

In assay [4] the target is T2, HSP90a protein (Homo sapiens, UniProt P07900).
T2 construct: purchased BPS Bioscience 50298
Nature of the assay: HSP90α-binding fluorescent polarization (FP) assay, BODIPY-labeled RNK04010 probe. The settings on record: FP competition with RNK04010 (BODIPY-labeled), 5 nM, 300 min at 25° C. In outline: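 Binding was scored by fluorescence polarization after adding N-terminal HSP90a to wells holding probe and compound, with compound tested from 20 μM to 5.2 nM. Probe-dependent times at 25° C were 120 min for FITC-geldanamycin and 300 min for RNK04010-BODIPY, both at 5 nM final.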

Assay [5] relates to NCI-H358 human non-small cell lung cancer. The assay is described as follows: NCI-H358 CCK-8 proliferation assay. In kind it is cell-based. To be noted: NCI-H358 cells, 72 hr. The procedure, abridged:
as §1

T1 sequence (P01116 1-188 isoform P01116-2 G12C): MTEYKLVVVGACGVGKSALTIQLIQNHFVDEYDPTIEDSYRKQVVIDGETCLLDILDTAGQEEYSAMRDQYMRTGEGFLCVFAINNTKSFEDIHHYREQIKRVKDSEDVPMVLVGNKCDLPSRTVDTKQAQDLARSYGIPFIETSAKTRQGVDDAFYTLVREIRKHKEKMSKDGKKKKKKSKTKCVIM

With `C=CC(=O)N1CCN(c2nc(OC[C@@H]3C[C@H](N4CCN(CC5CCN(Cc6ccc(-n7c(O)nnc7-c7cc(C(C)C)c(O)cc7O)cc6)CC5)CC4)CN3C)nc3c2CCN(c2cccc4cccc(Cl)c24)C3)C[C@@H]1CC#N` [Compound 275, 2-[(2S)-4-[7-(8-chloronaphthalen-1-yl)-2-{[(2S,4S)-4-(4-{[1-({4-[3-(2,4-dihydroxy-5-isopropylphenyl)-5-hydroxy-1,2,4-triazol-4-yl]phenyl}methyl)piperidin-4-yl]methyl}piperazin-1-yl)-1-methylpyrrolidin-2-yl]methoxy}-5H,6H,8H-pyrido[3,4-d]pyrimidin-4-yl]-1-(prop-2-enoyl)piperazin-2-yl]acetonitrile], the IC50 in assay [1] is under 100 nM. In addition, the half-maximal degradation concentration (DC50) in assay [2] lay within 100 to 1000 nM. In assay [3] (Homo sapiens, MIA PaCa-2, 72 h), this compound returned an EC50 of 100 to 1000 nM.

`C=CC(=O)N1CCN(c2nc(OCCN3CCN(C(=O)C4CCN(Cc5ccc(-n6c(C(N)=O)nnc6-c6cc(C(C)C)c(O)cc6O)cc5)CC4)C[C@@H]3CN(C)C)nc3c2CCN(c2cccc4cccc(Cl)c24)C3)C[C@@H]1CC#N` [Compound 260, 4-(4-((4-((S)-4-(2-((4-((S)-4-acryloyl-3-(cyanomethyl)piperazin-1-yl)-7-(8-chloronaphthalen-1-yl)-5,6,7,8-tetrahydropyrido[3,4-d]pyrimidin-2-yl)oxy)ethyl)-3-((dimethylamino)methyl)piperazine-1-carbonyl)piperidin-1-yl)methyl)phenyl)-5-(2,4-dihydroxy-5-isopropylphenyl)-4H-1,2,4-triazole-3-carboxamide] had a DC50 in assay [2] of over 1000 nM. In assay [3] (Homo sapiens, MIA PaCa-2, 72 h), this compound yielded a 50% effective concentration (EC50) of under 100 nM.

In the case of `C=CC(=O)N1CCN(c2nc(OC[C@@H]3C[C@H](N4CCN(Cc5ccc(-n6c(O)nnc6-c6cc(C)c(O)cc6O)cc5)CC4)CN3C)nc3c2CCN(c2cccc4ccccc24)C3)C[C@@H]1CC#N` [Compound 270, 2-[(2S)-4-(2-{[(2S,4S)-4-[4-({4-[3-(2,4-dihydroxy-5-methylphenyl)-5-hydroxy-1,2,4-triazol-4-yl]phenyl}methyl)piperazin-1-yl]-1-methylpyrrolidin-2-yl]methoxy}-7-(naphthalen-1-yl)-5H,6H,8H-pyrido[3,4-d]pyrimidin-4-yl)-1-(prop-2-enoyl)piperazin-2-yl]acetonitrile], the DC50 in assay [2] was 100 to 1000 nM. The same compound displayed an EC50 in assay [3] (Homo sapiens, MIA PaCa-2, 72 h) of over 1000 nM.

`C=CC(=O)N1CCN(c2nc(OCCN3CCC(C(=O)N4CCN(Cc5ccc(-n6c(C(=O)NCC(F)(F)F)nnc6-c6cc(C)c(O)cc6O)cc5)CC4)CC3)nc3c2CCN(c2cccc4cccc(Cl)c24)C3)C[C@@H]1CC#N` [Compound 254, (S)-4-(4-((4-(1-(2-((4-(4-acryloyl-3-(cyanomethyl)piperazin-1-yl)-7-(8-chloronaphthalen-1-yl)-5,6,7,8-tetrahydropyrido[3,4-d]pyrimidin-2-yl)oxy)ethyl)piperidine-4-carbonyl)piperazin-1-yl)methyl)phenyl)-5-(2,4-dihydroxy-5-methylphenyl)-N-(2,2,2-trifluoroethyl)-4H-1,2,4-triazole-3-carboxamide]: in assay [2], the half-maximal degradation concentration (DC50) was over 1000 nM. The same compound came in with an EC50 in assay [3] (72 hr) of over 1000 nM.

As to `C=CC(=O)N1CCN(c2nc(OC[C@@H]3CC[C@H](CN4CCN(Cc5ccc(-n6c(O)nnc6-c6cc(C(C)C)c(O)cc6O)cc5)CC4)N3C)nc3c2CCN(c2cccc4cccc(C)c24)C3)C[C@@H]1CC#N` [Compound 273, 2-[(2S)-4-(2-{[(2S,5R)-5-{[4-({4-[3-(2,4-dihydroxy-5-isopropylphenyl)-5-hydroxy-1,2,4-triazol-4-yl]phenyl}methyl)piperazin-1-yl]methyl}-1-methylpyrrolidin-2-yl]methoxy}-7-(8-methylnaphthalen-1-yl)-5H,6H,8H-pyrido[3,4-d]pyrimidin-4-yl)-1-(prop-2-enoyl)piperazin-2-yl]acetonitrile], the half-maximal degradation concentration (DC50) in assay [2] is 100 to 1000 nM. The compound also came in with a concentration giving a half-maximal response (EC50) in assay [3] (Homo sapiens, MIA PaCa-2, 72 h) of 100 to 1000 nM.

Turning to `C=CC(=O)N1CCN(c2nc(OC[C@@H]3C[C@H](N4CCN(Cc5ccc(-n6c(C(=O)NCC)nnc6-c6cc(C(C)C)c(O)cc6O)cc5)CC4)CN3C)nc3c2CCN(c2cccc4ccccc24)C3)C[C@@H]1CC#N` [Compound 271, 4-[4-({4-[(3S,5S)-5-[({4-[(3S)-3-(cyanomethyl)-4-(prop-2-enoyl)piperazin-1-yl]-7-(naphthalen-1-yl)-5H,6H,8H-pyrido[3,4-d]pyrimidin-2-yl}oxy)methyl]-1-methylpyrrolidin-3-yl]piperazin-1-yl}methyl)phenyl]-5-(2,4-dihydroxy-5-isopropylphenyl)-N-ethyl-1,2,4-triazole-3-carboxamide], the half-maximal degradation concentration (DC50) in assay [2] is 100 to 1000 nM. The compound also returned an EC50 in assay [3] (Homo sapiens, MIA PaCa-2, 72 h) of 100 to 1000 nM.

For `C=CC(=O)N1CCN(c2nc(OC[C@@H]3CC[C@H](CN4CCN(Cc5ccc(-n6c(O)nnc6-c6cc(C(C)C)c(O)cc6O)cc5)CC4)N3C)nc3c2CCN(c2cccc4ccccc24)C3)C[C@@H]1CC#N` [Compound 272, 2-[(2S)-4-(2-{[(2S,5R)-5-{[4-({4-[3-(2,4-dihydroxy-5-isopropylphenyl)-5-hydroxy-1,2,4-triazol-4-yl]phenyl}methyl)piperazin-1-yl]methyl}-1-methylpyrrolidin-2-yl]methoxy}-7-(naphthalen-1-yl)-5H,6H,8H-pyrido[3,4-d]pyrimidin-4-yl)-1-(prop-2-enoyl)piperazin-2-yl]acetonitrile], the half-maximal degradation concentration (DC50) in assay [2] was under 100 nM. The same compound returned an EC50 in assay [3] (Homo sapiens, MIA PaCa-2, 72 h) of under 100 nM.

For the compound `C=C(F)C(=O)N1CCN(c2nc(OC[C@@H]3CCCN3CCCOCCC(=O)NCc3ccc(-n4c(O)nnc4-c4cc(C(C)C)c(O)cc4O)cc3)nc3c2CCN(c2cccc4cccc(Cl)c24)C3)C[C@@H]1CC#N` [Compound 160, 3-(3-((S)-2-(((7-(8-chloronaphthalen-1-yl)-4-((S)-3-(cyanomethyl)-4-(2-fluoroacryloyl)piperazin-1-yl)-5,6,7,8-tetrahydropyrido[3,4-d]pyrimidin-2-yl)oxy)methyl)pyrrolidin-1-yl)propoxy)-N-(4-(3-(2,4-dihydroxy-5-isopropylphenyl)-5-hydroxy-4H-1,2,4-triazol-4-yl)benzyl)propenamide], the IC50 is under 100 nM in assay [4] and over 1000 nM in assay [1]. The concentration for a half-maximal effect (EC50) in assay [5] is over 1000 nM; in assay [3] (Homo sapiens, MIA PaCa-2, 72 h), over 1000 nM.

The compound `C=CC(=O)N1CCN(c2nc(OCCN3CCC(C(=O)N4CCN(Cc5ccc(-n6c(C(=O)NCC(F)(F)F)nnc6-c6cc(C)c(O)cc6O)cc5)CC4)CC3)nc3c2CCN(c2cccc4cccc(Cl)c24)C3)C[C@@H]1CC#N` [Compound 253, (S)-4-(4-((4-(1-(2-((4-(4-acryloyl-3-(cyanomethyl)piperazin-1-yl)-7-(8-chloronaphthalen-1-yl)-5,6,7,8-tetrahydropyrido[3,4-d]pyrimidin-2-yl)oxy)ethyl)piperidine-4-carbonyl)piperazin-1-yl)methyl)phenyl)-5-(2,4-dihydroxy-5-methylphenyl)-N-(2,2,2-trifluoroethyl)-4H-1,2,4-triazole-3-carboxamide] displayed a half-maximal degradation concentration (DC50) in assay [2] of over 1000 nM. The EC50 in assay [3] (72 hr) lay within 100 to 1000 nM.
